Source: patent US20250346597A1, “CONDENSED HETEROCYCLIC COMPOUNDS AS INHIBITOR OF DIACYLGLYCEROL KINASES” (BEONE MEDICINES I GMBH, priority 2023, published 2025)

Columns and labels:
DGKα = DGKα (Homo sapiens (Human), UniProt P23743); assay: Biochemical DGK IC50 assay (ADP-Glo, lipid micelle substrate), DGKα; conditions: full length DGKα […], ATP 140 μM, DAG 80 μM; also: full length DGKα 7.5 nM
Procedure, shortened: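 Luminescent ADP-Glo detection followed a 1 h room-temperature reaction of full-length DGKα on DAG/PS micelles, in HEPES buffer with 10 mM MgCl2, 0.01 mM CaCl2, 0.1 mM Na3VO4, BSA and Tween-20. IC50 derived from inhibition across increasing compound concentrations.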

DGKζ = DGKζ (Homo sapiens (Human), UniProt Q13574); assay: Biochemical DGK IC50 assay (ADP-Glo, lipid micelle substrate), DGKζ; conditions: full length DGKζ 0.5 nM, ATP 140 μM, DAG 80 μM
DGKζ, sequence (Q13574 other isoform, or with tags, fused parts or gaps): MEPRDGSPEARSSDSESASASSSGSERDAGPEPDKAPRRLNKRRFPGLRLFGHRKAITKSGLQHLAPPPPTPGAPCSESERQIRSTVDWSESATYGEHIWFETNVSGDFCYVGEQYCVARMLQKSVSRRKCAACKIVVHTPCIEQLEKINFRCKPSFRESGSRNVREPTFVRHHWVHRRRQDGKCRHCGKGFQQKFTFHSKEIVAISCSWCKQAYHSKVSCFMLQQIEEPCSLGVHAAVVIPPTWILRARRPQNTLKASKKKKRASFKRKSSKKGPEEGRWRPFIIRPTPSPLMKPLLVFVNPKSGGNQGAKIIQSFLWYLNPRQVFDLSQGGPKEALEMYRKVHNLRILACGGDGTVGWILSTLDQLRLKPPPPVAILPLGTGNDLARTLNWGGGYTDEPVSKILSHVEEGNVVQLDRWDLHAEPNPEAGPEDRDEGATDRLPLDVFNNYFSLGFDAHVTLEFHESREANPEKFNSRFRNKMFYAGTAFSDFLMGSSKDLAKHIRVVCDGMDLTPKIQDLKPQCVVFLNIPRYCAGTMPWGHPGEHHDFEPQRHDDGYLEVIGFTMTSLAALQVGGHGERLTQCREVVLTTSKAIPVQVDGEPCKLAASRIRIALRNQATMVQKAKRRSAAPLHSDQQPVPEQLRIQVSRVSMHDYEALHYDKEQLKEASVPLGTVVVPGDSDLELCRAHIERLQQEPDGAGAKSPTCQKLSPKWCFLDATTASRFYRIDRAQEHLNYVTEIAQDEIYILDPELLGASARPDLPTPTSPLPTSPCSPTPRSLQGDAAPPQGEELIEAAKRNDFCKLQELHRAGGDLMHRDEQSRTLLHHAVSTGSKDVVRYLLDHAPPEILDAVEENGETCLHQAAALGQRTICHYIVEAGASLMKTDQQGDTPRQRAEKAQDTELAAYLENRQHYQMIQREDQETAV
Procedure, shortened: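 ADP-Glo luminescence measured ADP made in a 1 h room-temperature reaction. The enzyme was Sf9-expressed, purified full-length human DGKζ, and the substrate was DAG/PS micelles. Assay buffer held 50 mM HEPES, 10 mM MgCl2, 0.01 mM CaCl2, 0.1 mM Na3VO4 and 0.01% BSA. IC50 was derived from activity inhibition over a compound concentration series.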

DGKα, sequence (P23743 whole entry): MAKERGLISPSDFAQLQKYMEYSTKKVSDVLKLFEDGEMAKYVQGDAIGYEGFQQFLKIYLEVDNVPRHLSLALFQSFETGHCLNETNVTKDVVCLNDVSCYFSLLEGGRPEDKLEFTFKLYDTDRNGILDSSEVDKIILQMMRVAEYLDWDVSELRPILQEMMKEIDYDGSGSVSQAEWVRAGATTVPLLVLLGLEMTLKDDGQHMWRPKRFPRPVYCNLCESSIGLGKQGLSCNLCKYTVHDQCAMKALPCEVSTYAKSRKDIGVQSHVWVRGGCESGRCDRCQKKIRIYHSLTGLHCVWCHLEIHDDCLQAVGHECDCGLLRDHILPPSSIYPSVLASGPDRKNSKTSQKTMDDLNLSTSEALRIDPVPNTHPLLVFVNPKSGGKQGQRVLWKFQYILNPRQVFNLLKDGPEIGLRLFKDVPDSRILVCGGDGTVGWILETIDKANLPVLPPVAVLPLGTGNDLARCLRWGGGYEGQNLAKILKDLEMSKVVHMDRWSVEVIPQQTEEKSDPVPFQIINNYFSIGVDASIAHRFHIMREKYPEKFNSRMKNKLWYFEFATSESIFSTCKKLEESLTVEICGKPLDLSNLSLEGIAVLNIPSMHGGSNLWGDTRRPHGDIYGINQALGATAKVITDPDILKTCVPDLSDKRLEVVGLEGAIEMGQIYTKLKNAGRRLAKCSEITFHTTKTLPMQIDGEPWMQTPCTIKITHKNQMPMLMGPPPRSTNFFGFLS

| SMILES | IC50 (DGKα) | IC50 (DGKζ) |
| --- | --- | --- |
| CC[C@H]1CN(C(C)c2ccc(COC)cn2)[C@H](CC)CN1c1cc(=O)n(C)c2cn(CC#N)nc12 (stereo partly drawn) [Compound A61, 2-(7-((2S,5R)-2,5-diethyl-4-(1-(5-(methoxymethyl)pyridin-2-yl)ethyl)piperazin-1-yl)-4-methyl-5-oxo-4,5-dihydro-2H-pyrazolo[4,3-b]pyridin-2-yl)acetonitrile] | 143 nM | 298 nM |
| CC[C@H]1CN(C(C)c2ccc(C3CC3)c(F)n2)[C@H](CC)CN1c1cc(=O)n(C)c2cn(CC#N)nc12 (stereo partly drawn) [Compound A62, 2-(7-((2S,5R)-4-(1-(5-cyclopropyl-6-fluoropyridin-2-yl)ethyl)-2,5-diethylpiperazin-1-yl)-4-methyl-5-oxo-4,5-dihydro-2H-pyrazolo[4,3-b]pyridin-2-yl)acetonitrile] | 21 nM | 154 nM |
| CC[C@H]1CN(C(C)c2cc(F)c(C3CC3)cn2)[C@H](CC)CN1c1cc(=O)n(C)c2cn(CC#N)nc12 (stereo partly drawn) [Compound A63, 2-(7-((2S,5R)-4-(1-(5-cyclopropyl-4-fluoropyridin-2-yl)ethyl)-2,5-diethylpiperazin-1-yl)-4-methyl-5-oxo-4,5-dihydro-2H-pyrazolo[4,3-b]pyridin-2-yl)acetonitrile] | 167 nM | 21 nM |
| CC[C@H]1CN(C(C)c2cc3c(cc2F)OC(C)(C)CO3)[C@H](CC)CN1c1cc(=O)n(C)c2cn(CC#N)nc12 (stereo partly drawn) [Compound A64, 2-(7-((2S,5R)-2,5-diethyl-4-(1-(7-fluoro-2,2-dimethyl-2,3-dihydrobenzo[b][1,4]dioxin-6-yl)ethyl)piperazin-1-yl)-4-methyl-5-oxo-4,5-dihydro-2H-pyrazolo[4,3-b]pyridin-2-yl)acetonitrile] | 1040 nM | 7.8 nM |
| CC[C@H]1CN(C(C)c2ccc3c(c2)CCC3)[C@H](CC)CN1c1cc(=O)n(C)c2cn(CC#N)nc12 (stereo partly drawn) [Compound A65, 2-(7-((2S,5R)-4-(1-(2,3-dihydro-1H-inden-5-yl)ethyl)-2,5-diethylpiperazin-1-yl)-4-methyl-5-oxo-4,5-dihydro-2H-pyrazolo[4,3-b]pyridin-2-yl)acetonitrile] | 295 nM | 66 nM |
| CC[C@H]1CN(C(C)c2ccc3c(c2)CCC3(C)C)[C@H](CC)CN1c1cc(=O)n(C)c2cn(CC#N)nc12 (stereo partly drawn) [Compound A66, 2-(7-((2S,5R)-4-(1-(1,1-dimethyl-2,3-dihydro-1H-inden-5-yl)ethyl)-2,5-diethylpiperazin-1-yl)-4-methyl-5-oxo-4,5-dihydro-2H-pyrazolo[4,3-b]pyridin-2-yl)acetonitrile] | 2250 nM | 96 nM |
| CC[C@H]1CN(C(C)c2ccc3c(c2)CCO3)[C@H](CC)CN1c1cc(=O)n(C)c2cn(CC#N)nc12 (stereo partly drawn) [Compound A67, 2-(7-((2S,5R)-4-(1-(2,3-dihydrobenzofuran-5-yl)ethyl)-2,5-diethylpiperazin-1-yl)-4-methyl-5-oxo-4,5-dihydro-2H-pyrazolo[4,3-b]pyridin-2-yl)acetonitrile] | 245 nM | 71 nM |
| CC(c1ccc2c(c1F)OC(C)(C)O2)N1C[C@H](C)N(c2cc(=O)n(C)c3cn(CC#N)nc23)C[C@H]1C (stereo partly drawn) [Compound A69, 2-(7-((2S,5R)-4-(1-(4-fluoro-2,2-dimethylbenzo[d][1,3]dioxol-5-yl)ethyl)-2,5-dimethylpiperazin-1-yl)-4-methyl-5-oxo-4,5-dihydro-2H-pyrazolo[4,3-b]pyridin-2-yl)acetonitrile] | 4730 nM | 20 nM |
| CC(c1ccc2c(c1)OC(C)(C)O2)N1C[C@H](C)N(c2cc(=O)n(C)c3cn(CC#N)nc23)C[C@H]1C (stereo partly drawn) [Compound A70, 2-(7-((2S,5R)-4-(1-(2,2-dimethylbenzo[d][1,3]dioxol-5-yl)ethyl)-2,5-dimethylpiperazin-1-yl)-4-methyl-5-oxo-4,5-dihydro-2H-pyrazolo[4,3-b]pyridin-2-yl)acetonitrile] | 12400 nM | 31 nM |
